For 5 compounds, pest or weed control and chromatographic logP results are on record in US20200029564A1, “NOVEL 5-SUBSTITUTED IMIDAZOLYLMETHYLOXIRANE DERIVATIVES” (Bayer CropScience Aktiengesellschaft, priority 2016, published 2020).

The test system of series [1] is Blumeria graminis fsp. hordei. The series is described as follows: In vivo preventive Blumeria test (barley). As to conditions: 168 h, 500 ppm of active ingredient, preventive spray on young barley plants, evaluated 7 days after inoculation, read-out: efficacy. The protocol: Example F: In Vivo Preventive Blumeria Test (Barley) [table] To produce a suitable preparation of active compound, 1 part by weight of active compound or active compound combination is mixed with the stated amounts of solvent and emulsifier, and the concentrate is diluted with water to the desired concentration. To test for preventive activity, young plants are sprayed with the preparation of active compound or active compound combination at the stated rate of application. After the spray coating has been dried, the plants are dusted with spores of Blumeria graminis fsp. hordei. The plants are placed in the greenhouse at a temperature of approximately 18° C. and a relative atmospheric humidity of approximately 80% to promote the development of mildew pustules. The test is evaluated 7 days after the inoculation. 0% means an efficacy which corresponds to that of the untreated control, while an efficacy of 100% means that no disease is observed.

Series [2] concerns Uromyces appendiculatus. The series is described as follows: In vivo preventive test on Uromyces appendiculatus (bean rust). As to conditions: 264 h, 500 ppm of active ingredient, preventive spray on young bean plants, evaluated 11 days after inoculation, read-out: efficacy. The protocol: (§1) Example D: In Vivo Preventive Test on Uromyces appendiculatus (Bean Rust) [table] The active ingredients are made soluble and homogenized in a mixture of Dimethyl sulfoxide/Acetone/Tween® 80 and then diluted in water to the desired concentration. The young plants of bean are treated by spraying the active ingredient prepared as described above. Control plants are treated only with an aqueous solution of Acetone/Dimethyl sulfoxide/Tween® 80. After 24 hours, the plants are contaminated by spraying the leaves with an aqueous suspension of Uromyces appendiculatus spores. The contaminated bean plants are incubated for 24 hours at 20° C. and at 100% relative humidity and then for 10 days at 20° C. and at 70-80% relative humidity. The test is evaluated 11 days after the inoculation. 0% means an efficacy which corresponds to that of the control plants while an efficacy of 100% means that no disease is observed.

In series [3] the test system is Sphaerotheca fuliginea. The series is described as follows: In vivo preventive test on Sphaerotheca fuliginea (powdery mildew on cucurbits). As to conditions: Podosphaera fuliginea, 360 h; 500 ppm of active ingredient; preventive spray on young gherkin plants; evaluated 15 days after inoculation; read-out: efficacy. The procedure: Example C: In Vivo Preventive Test on Sphaerotheca fuliginea (Powdery Mildew on Cucurbits) [table] The active ingredients are made soluble and homogenized in a mixture of Dimethyl sulfoxide/Acetone/Tween® 80 and then diluted in water to the desired concentration. The young plants of gherkin are treated by spraying the active ingredient prepared as described above. Control plants are treated only with an aqueous solution of Acetone/Dimethyl sulfoxide/Tween® 80. After 24 hours, the plants are contaminated by spraying the leaves with an aqueous suspension of Sphaerotheca fuidiginea spores. The contaminated gherkin plants are incubated for 72 hours at 18° C. and at 100% relative humidity and then for 12 days at 20° C. and at 70-80% relative humidity. The test is evaluated 15 days after the inoculation. 0% means an efficacy which corresponds to that of the control plants while an efficacy of 100% means that no disease is observed.

Series [4] deals with Puccinia recondita. In words: In vivo preventive test on Puccinia recondita (brown rust on wheat). As to conditions: 264 h, 500 ppm of active ingredient, preventive spray on young wheat plants, evaluated 11 days after inoculation, read-out: efficacy. The protocol:
as §1, with “A:” for “D:”, “Puccinia recondita (Brown Rust on Wheat)” for “Uromyces appendiculatus (Bean Rust)”, “wheat” for “bean”, “Puccinia recondita” for “Uromyces appendiculatus”

A short description of series [5]: LogP by HPLC on reversed phase columns (EEC directive 79/831 Annex V.A8). The format is physicochemical. The conditions noted are these: reversed phase HPLC column, method [a]: LC-UV, acidic range, 0.1% formic acid in water and acetonitrile as eluent. The procedure:
[table] If more than one Log P value is available within the same method, all the values are given and separated by “+”. Calibration was done with straight-chain alkan2-ones (with 3 to 16 carbon atoms) with known Log P values (measurement of Log P values using retention times with linear interpolation between successive alkanones). Lambda-max-values were determined using UV-spectra from 200 nm to 400 nm and the peak values of the chromatographic signals.

The subject of series [6] is Septoria tritici. The series is described as follows: In vivo preventive test on Septoria tritici (leaf spot on wheat). The conditions noted are these: Zymoseptoria tritici, 576 h; 500 ppm of active ingredient; preventive spray on young wheat plants; evaluated 24 days after inoculation; read-out: efficacy. The procedure:
Example B: In Vivo Preventive Test on Septoria tritici (Leaf Spot on Wheat) [table] The active ingredients are made soluble and homogenized in a mixture of Dimethyl sulfoxide/Acetone/Tween® 80 and then diluted in water to the desired concentration. The young plants of wheat are treated by spraying the active ingredient prepared as described above. Control plants are treated only with an aqueous solution of Acetone/Dimethyl sulfoxide/Tween® 80. After 24 hours, the plants are contaminated by spraying the leaves with an aqueous suspension of Septoria tritici spores. The contaminated wheat plants are incubated for 72 hours at 18° C. and at 100% relative humidity and then for 21 days at 20° C. and at 90% relative humidity. The test is evaluated 24 days after the inoculation. 0% means an efficacy which corresponds to that of the control plants while an efficacy of 100% means that no disease is observed.

Broadly, the chromatographic logP is lipophilicity estimated from chromatographic retention. Lower therefore signals a more hydrophilic compound. Regarding `N#Cc1cncn1CC1(c2ccc(Cl)cc2F)OC1c1ccccc1Cl` (stereo not drawn) [I-25], the pest or weed control at 500 ppm in series [1], in series [2], in series [3], in series [4] and in series [6] was 90 to 100% throughout. Further, the chromatographic logP in series [5] is 3.8.

As to `N#Cc1cncn1CC1(c2ccc(OC(F)(F)F)cc2)OC1c1ccccc1Cl` (stereo not drawn) [I-07], the pest or weed control at 500 ppm in series [1], in series [2], in series [3], in series [4] and in series [6] was 90 to 100% in each case. This compound also displayed a chromatographic logP in series [5] of 4.11.

As to `N#Cc1cncn1CC1(c2ccc(Cl)cc2)OC1c1ccccc1Cl` (stereo not drawn) [I-06], the pest or weed control at 500 ppm in series [1], in series [2], in series [3], in series [4] and in series [6] was 90 to 100% each time. For the same compound, in series [5], the chromatographic logP came to 3.68.

Turning to `Fc1ccc(C2(Cn3cncc3Cl)OC2c2ccccc2Cl)cc1` (stereo not drawn) [I-01], the pest or weed control at 500 ppm in series [1], in series [2], in series [3], in series [4] and in series [6] was 90 to 100% throughout. This compound also had a chromatographic logP in series [5] of 3.19.

`Fc1ccc(C2(Cn3cncc3F)OC2c2ccccc2Cl)cc1` (stereo not drawn) [I-02]: the pest or weed control at 500 ppm in series [1], in series [2], in series [3], in series [4] and in series [6] was 90 to 100% throughout. In series [5], this compound showed a chromatographic logP of 2.62.
